What was measured:
Format in all cases: in vivo, human
[1] = tested on: men suffering from moderate to severe LUTS secondary to BPH; assay: same clinical study: safety / tolerability of once a day dosing; conditions: dosed once a day, 5 mg then 20 mg
Description: (§1) The efficacy and safety of Compound (I) administered once a day for LUTS secondary to BPH in male humans was tested. In particular, the efficacy and safety of Compound (I) dosed once a day was assessed in men suffering from moderate to severe LUTS secondary to BPH in a randomized, double-blind, placebo-controlled, parallel-group, dose-escalation study. Patients were treated with placebo for four weeks (single blind) to evaluate treatment compliance and establish baseline International Prostate Symptom Score (IPSS) and uroflowmetry values. After stratification by baseline IPSS (13-19, moderate LUTS; 20-35, severe LUTS), geographic region, and prior α-blocker therapy, 281 men were randomly assigned to two groups: (1) Compound (I) (5 mg for 6 weeks followed by dose escalation to 20 mg for 6 weeks) or (2) placebo (12 weeks). The primary efficacy end point was change in IPSS at 6 and 12 weeks. Secondary efficacy endpoints included changes in IPSS Quality of Life (QoL) index, BPH Impact Index (BII), uroflowmetry values, and a Global Assessment Question (LUTS GAQ) (Has the treatment you have been taking since your last visit improved your urinary symptoms?). Responses to Compound (I) 5 mg (6 weeks) or Compound (I) 5 mg followed by 20 mg (5/20 mg; 12 weeks total) were compared with placebo using ANCOVA (IPSS, BII, uroflowmetry values) and logistic linear regression (LUTS GAQ) models.

[2] = tested on: men suffering from moderate to severe LUTS secondary to BPH; assay: randomized, double-blind, placebo-controlled, parallel-group, dose-escalation study, once a day dosing: efficacy in LUTS secondary to BPH
Description: as §1

[3] = tested on: men with LUTS/BPH who were sexually active and also had erectile dysfunction; assay: same clinical study: erectile function (IIEF EF domain) in the subset with erectile dysfunction; conditions: for increase in International Index of Erectile Function (IIEF) EF domain score: LS Means, p<0.001
Description: The efficacy and safety of Compound (I) administered once a day for LUTS secondary to BPH in male humans was tested. In particular, the efficacy and safety of Compound (I) dosed once a day was assessed in men suffering from moderate to severe LUTS secondary to BPH in a randomized, double-blind, placebo-controlled, parallel-group, dose-escalation study.
as §1, with “Patients” for “The efficacy and safety of Compound (I) administered once a day for LUTS secondary to BPH in male humans was tested. In particular, the efficacy and safety of Compound (I) dosed once a day was assessed in men suffering from moderate to severe LUTS secondary to BPH in a randomized, double-blind, placebo-controlled, parallel-group, dose-escalation study. Patients”
At 6 weeks (5 mg) and 12 weeks (5/20 mg) Compound (I) improved change from baseline scores for IPSS, IPSS QoL, BII, and LUTS GAQ compared with placebo. Peak flow rate (Qmax) changes were similar in placebo and Compound (I) treatment groups.

[4] = at 6 weeks (5 mg) and 12 weeks (5/20 mg), once a day, men

For CN1CC(=O)N2[C@H](c3ccc4c(c3)OCO4)c3[nH]c4ccccc4c3C[C@@H]2C1=O [Compound (I), (6R,12aR)-2,3,6,7,12,12a-hexahydro-2-methyl-6-(3,4-methylenedioxyphenyl)pyrazino[2′,1′:6:1]pyrido[3,4-b]indole-1,4-dione], the tolerability [1] was “well tolerated”, the “LUTS GAQ compared with placebo” value [2, 4] was “improved” and the “change from baseline score for BII compared with placebo” value [2, 4] was “improved”. The “change from baseline score for IPSS QoL compared with placebo” value [2, 4] was “improved”, the “change from baseline score for IPSS compared with placebo” value [2, 4] was “improved” and the “efficacy in the treatment of LUTS secondary to BPH” value ([2]; dosed once a day, summary) was “statistically significant and clinically meaningful efficacy”. For the same molecule, the “Peak flow rate (Qmax) changes versus placebo” value ([2]; uroflowmetry, placebo and Compound (I) treatment groups) was “similar”, the “increase in International Index of Erectile Function (IIEF) EF domain score” value ([3]; 5 mg once a day, 6 weeks, vs. 0.6 placebo) was 6.0 and the “increase in International Index of Erectile Function (IIEF) EF domain score” value ([3]; 5/20 mg once a day, 12 weeks total, vs. 1.4 placebo) was 7.7. The “erectile function in men with both LUTS and MED” value ([3]; dosed once a day, summary) was “improved erectile function”.

Source: patent US20070093493A1, “Treatment of benign prostatic hypertrophy and lower urinary tract symptoms” (LILLY ICOS LLC, priority 2005, published 2007)
